From patent publication US20250275540A1, “USE OF PROTOPORPHYRINOGEN OXIDASE” (BEIJING DABEINONG BIOTECHNOLOGY CO., LTD., priority 2022, published 2025)

Tested on: transgenic maize plants
Experiment: Detection of the herbicide tolerance of the transgenic maize plants
Format: in vivo
Conditions: for The grade of pesticide damage/plant: 0 / The grade of pesticide damage/plant: 1 / The grade of pesticide damage/plant: 2 / The grade of pesticide damage/plant: 3: 7 DAT
Text: The transformed Arabidopsis thaliana T1 plants were initially selected using glufosinate herbicide. The Arabidopsis thaliana T1 plants (PPOA-01) into which the PPOA-01 nucleotide sequence was introduced, the Arabidopsis thaliana T1 plants (PPOB-01) into which the PPOB-01 nucleotide sequence was introduced, the Arabidopsis thaliana T1 plants (PPOC-01) into which the PPOC-01 nucleotide sequence was introduced, the Arabidopsis thaliana T1 plants (PPOD-01) into which the PPOD-01 nucleotide sequence was introduced, the Arabidopsis thaliana T1 plants (PPOE-01) into which the PPOE-01 nucleotide sequence was introduced, the Arabidopsis thaliana T1 plants (PPOF-01) into which the PPOF-01 nucleotide sequence was introduced, the Arabidopsis thaliana T1 plants (PPO-AP-01) into which the PPO-AP-01 nucleotide sequence was introduced, and the Arabidopsis thaliana T1 plants (control vector) into which the control vector was introduced, the wild-type Arabidopsis thaliana plants (CK) (with 24 plants being included in each genotype) (18 days after sowing) were sprayed with saflufenacil at three concentrations (25 g ai/ha (one-fold field concentration, 1×), 100 g ai/ha (four-fold field concentration, 4×), and 0 g ai/ha (water, 0×)), oxyfluorfen at three concentrations (180 g ai/ha (one-fold field concentration, 1×), 720 g ai/ha (four-fold field concentration, 4×), and 0 g ai/ha (water, 0×)), and flumioxazin at three concentrations (60 g ai/ha (one-fold field concentration, 1×), 240 g ai/ha (four-fold field concentration, 4×), and 0 g ai/ha (water, 0×) to determine the tolerance of Arabidopsis thaliana to the herbicides. After 7 days of spraying (7 DAT), the damage level of each plant caused by the herbicide was evaluated according to the average of the damage levels (%) of plants (the average of the damage levels (%) of plants=the injured leaf area/the total leaf area×100%), i.e., the grade of pesticide damage: grade 0 means that the growth status of plants is essentially consistent with those sprayed with the blank solvent (water); grade 1 means that the average of the damage levels of plants is less than 10%; grade 2 means that the average of the damage levels of plants is greater than 10%; and grade 3 means that the average of the damage levels of plants is 100%. The plants having a growth status falling within grades 0 and 1 are classified as highly resistant plants; those having a growth status falling within grade 2 are classified as poorly resistant plants; and those having a growth status falling within grade 3 are classified as non-resistant plants.
The maize plants into which the PPOA-02 nucleotide sequence was introduced, the maize plants into which the PPOB-02 nucleotide sequence was introduced, the maize plants into which the PPOC-02 nucleotide sequence was introduced, the maize plants into which the PPOD-02 nucleotide sequence was introduced, the maize plants into which the PPOE-02 nucleotide sequence was introduced, the maize plants into which the PPOF-02 nucleotide sequence was introduced, the maize plants into which the PPO-AP-02 nucleotide sequence was introduced, the maize plants (control vector) into which the control vector was introduced, and the wild-type maize plants (CK) (with 16 plants being included in each genotype) (18 days after sowing) were taken and sprayed with saflufenacil at three concentrations (50 g ai/ha (two-fold field concentration, 2×), 100 g ai/ha (four-fold field concentration, 4×), and 0 g ai/ha (water, 0×)), oxyfluorfen at three concentrations (360 g ai/ha (two-fold field concentration, 2×), 720 g ai/ha (four-fold field concentration, 4×), and 0 g ai/ha (water, 0×), and flumioxazin at three concentrations (120 g ai/ha (two-fold field concentration, 2×), 240 g ai/ha (four-fold field concentration, 4×), and 0 g ai/ha (water, 0×) to determine the tolerance of maize plants to the herbicides. […]

[1] = genotype Control vector, 120 g ai/ha
[2] = genotype Control vector, 240 g ai/ha
[3] = genotype PPO-AP-02, 120 g ai/ha
[4] = genotype PPO-AP-02, 240 g ai/ha

Q: With C#CCN1C(=O)COc2cc(F)c(N3C(=O)C4=C(CCCC4)C3=O)cc21 [flumioxazin, 2-[7-fluoro-3,4-dihydro-3-oxo-4-(2-propynyl)-2H-1,4-benzoxazin-6-yl]-4,5,6,7-tetrahydro-1H-isoindole-1,3(2H)-dione] as the compound, how does the “The grade of pesticide damage/plant: 0” value (genotype CK, 120 g ai/ha) read?
A: The value was 0 plant.

Q: What about the “The grade of pesticide damage/plant: 1” value (genotype CK, 120 g ai/ha) of the same compound?
A: The value was 0 plant.

Q: And the “The grade of pesticide damage/plant: 2” value (genotype CK, 120 g ai/ha)?
A: Its value is 0 plant.

Q: And the “The grade of pesticide damage/plant: 3” value (genotype CK, 120 g ai/ha)?
A: The value was 16 plant.

Q: And the “The grade of pesticide damage/plant: 0” value (genotype CK, 240 g ai/ha)?
A: The value was 0 plant.

Q: And the “The grade of pesticide damage/plant: 1” value (genotype CK, 240 g ai/ha)?
A: The value was 0 plant.

Q: What about the “The grade of pesticide damage/plant: 2” value (genotype CK, 240 g ai/ha) of the same compound?
A: The value was 0 plant.

Q: What about the “The grade of pesticide damage/plant: 3” value (genotype CK, 240 g ai/ha) of the same compound?
A: The value was 16 plant.

Q: And the “The grade of pesticide damage/plant: 0” value [1]?
A: The value was 0 plant.

Q: What about the “The grade of pesticide damage/plant: 1” value [1] of the same compound?
A: The value was 0 plant.

Q: And the “The grade of pesticide damage/plant: 2” value [1]?
A: The value was 0 plant.

Q: What about the “The grade of pesticide damage/plant: 3” value [1] of the same compound?
A: Its value is 16 plant.

Q: And the “The grade of pesticide damage/plant: 0” value [2]?
A: The value was 0 plant.

Q: What about the “The grade of pesticide damage/plant: 1” value [2] of the same compound?
A: The value was 0 plant.

Q: And the “The grade of pesticide damage/plant: 2” value [2]?
A: The value was 0 plant.

Q: What about the “The grade of pesticide damage/plant: 3” value [2] of the same compound?
A: Its value is 16 plant.

Q: And the “The grade of pesticide damage/plant: 0” value [3]?
A: The value was 0 plant.

Q: And the “The grade of pesticide damage/plant: 1” value [3]?
A: Its value is 0 plant.

Q: What about the “The grade of pesticide damage/plant: 2” value [3] of the same compound?
A: Its value is 3 plant.

Q: And the “The grade of pesticide damage/plant: 3” value [3]?
A: Its value is 13 plant.

Q: What about the “The grade of pesticide damage/plant: 0” value [4] of the same compound?
A: The value was 0 plant.

Q: And the “The grade of pesticide damage/plant: 1” value [4]?
A: Its value is 0 plant.

Q: What about the “The grade of pesticide damage/plant: 2” value [4] of the same compound?
A: Its value is 0 plant.

Q: And the “The grade of pesticide damage/plant: 3” value [4]?
A: Its value is 16 plant.

Q: And the “tolerance to the herbicide (in words)” value (genotype PPO-AP-02, at different concentrations)?
A: The value was “basically no tolerance”.

Q: And the “The grade of pesticide damage/plant: 0” value (genotype PPOA-02, 120 g ai/ha)?
A: Its value is 16 plant.

Q: What about the “The grade of pesticide damage/plant: 1” value (genotype PPOA-02, 120 g ai/ha) of the same compound?
A: Its value is 0 plant.

Q: What about the “The grade of pesticide damage/plant: 2” value (genotype PPOA-02, 120 g ai/ha) of the same compound?
A: Its value is 0 plant.

Q: What about the “The grade of pesticide damage/plant: 3” value (genotype PPOA-02, 120 g ai/ha) of the same compound?
A: Its value is 0 plant.

Q: And the “The grade of pesticide damage/plant: 0” value (genotype PPOA-02, 240 g ai/ha)?
A: Its value is 16 plant.

Q: What about the “The grade of pesticide damage/plant: 1” value (genotype PPOA-02, 240 g ai/ha) of the same compound?
A: The value was 0 plant.

Q: What about the “The grade of pesticide damage/plant: 2” value (genotype PPOA-02, 240 g ai/ha) of the same compound?
A: The value was 0 plant.

Q: And the “The grade of pesticide damage/plant: 3” value (genotype PPOA-02, 240 g ai/ha)?
A: Its value is 0 plant.

Q: And the “The grade of pesticide damage/plant: 0” value (genotype PPOB-02, 120 g ai/ha)?
A: The value was 16 plant.

Q: What about the “The grade of pesticide damage/plant: 1” value (genotype PPOB-02, 120 g ai/ha) of the same compound?
A: The value was 0 plant.

Q: And the “The grade of pesticide damage/plant: 2” value (genotype PPOB-02, 120 g ai/ha)?
A: Its value is 0 plant.

Q: What about the “The grade of pesticide damage/plant: 3” value (genotype PPOB-02, 120 g ai/ha) of the same compound?
A: The value was 0 plant.

Q: And the “The grade of pesticide damage/plant: 0” value (genotype PPOB-02, 240 g ai/ha)?
A: Its value is 16 plant.

Q: What about the “The grade of pesticide damage/plant: 1” value (genotype PPOB-02, 240 g ai/ha) of the same compound?
A: The value was 0 plant.

Q: What about the “The grade of pesticide damage/plant: 2” value (genotype PPOB-02, 240 g ai/ha) of the same compound?
A: The value was 0 plant.

Q: And the “The grade of pesticide damage/plant: 3” value (genotype PPOB-02, 240 g ai/ha)?
A: Its value is 0 plant.

Q: What about the “The grade of pesticide damage/plant: 0” value (genotype PPOC-02, 120 g ai/ha) of the same compound?
A: Its value is 16 plant.

Q: And the “The grade of pesticide damage/plant: 1” value (genotype PPOC-02, 120 g ai/ha)?
A: Its value is 0 plant.

Q: And the “The grade of pesticide damage/plant: 2” value (genotype PPOC-02, 120 g ai/ha)?
A: Its value is 0 plant.

Q: And the “The grade of pesticide damage/plant: 3” value (genotype PPOC-02, 120 g ai/ha)?
A: Its value is 0 plant.

Q: And the “The grade of pesticide damage/plant: 0” value (genotype PPOC-02, 240 g ai/ha)?
A: The value was 16 plant.

Q: And the “The grade of pesticide damage/plant: 1” value (genotype PPOC-02, 240 g ai/ha)?
A: Its value is 0 plant.

Q: What about the “The grade of pesticide damage/plant: 2” value (genotype PPOC-02, 240 g ai/ha) of the same compound?
A: Its value is 0 plant.

Q: And the “The grade of pesticide damage/plant: 3” value (genotype PPOC-02, 240 g ai/ha)?
A: Its value is 0 plant.

Q: What about the “The grade of pesticide damage/plant: 0” value (genotype PPOD-02, 120 g ai/ha) of the same compound?
A: Its value is 16 plant.

Q: What about the “The grade of pesticide damage/plant: 1” value (genotype PPOD-02, 120 g ai/ha) of the same compound?
A: Its value is 0 plant.

Q: And the “The grade of pesticide damage/plant: 2” value (genotype PPOD-02, 120 g ai/ha)?
A: Its value is 0 plant.

Q: What about the “The grade of pesticide damage/plant: 3” value (genotype PPOD-02, 120 g ai/ha) of the same compound?
A: The value was 0 plant.

Q: What about the “The grade of pesticide damage/plant: 0” value (genotype PPOD-02, 240 g ai/ha) of the same compound?
A: Its value is 16 plant.

Q: What about the “The grade of pesticide damage/plant: 1” value (genotype PPOD-02, 240 g ai/ha) of the same compound?
A: The value was 0 plant.

Q: And the “The grade of pesticide damage/plant: 2” value (genotype PPOD-02, 240 g ai/ha)?
A: The value was 0 plant.

Q: What about the “The grade of pesticide damage/plant: 3” value (genotype PPOD-02, 240 g ai/ha) of the same compound?
A: The value was 0 plant.

Q: And the “The grade of pesticide damage/plant: 0” value (genotype PPOE-02, 120 g ai/ha)?
A: Its value is 16 plant.

Q: And the “The grade of pesticide damage/plant: 1” value (genotype PPOE-02, 120 g ai/ha)?
A: The value was 0 plant.

Q: And the “The grade of pesticide damage/plant: 2” value (genotype PPOE-02, 120 g ai/ha)?
A: Its value is 0 plant.

Q: And the “The grade of pesticide damage/plant: 3” value (genotype PPOE-02, 120 g ai/ha)?
A: The value was 0 plant.

Q: And the “The grade of pesticide damage/plant: 0” value (genotype PPOE-02, 240 g ai/ha)?
A: Its value is 16 plant.

Q: What about the “The grade of pesticide damage/plant: 1” value (genotype PPOE-02, 240 g ai/ha) of the same compound?
A: Its value is 0 plant.

Q: What about the “The grade of pesticide damage/plant: 2” value (genotype PPOE-02, 240 g ai/ha) of the same compound?
A: The value was 0 plant.

Q: And the “The grade of pesticide damage/plant: 3” value (genotype PPOE-02, 240 g ai/ha)?
A: The value was 0 plant.

Q: And the “The grade of pesticide damage/plant: 0” value (genotype PPOF-02, 120 g ai/ha)?
A: The value was 16 plant.

Q: What about the “The grade of pesticide damage/plant: 1” value (genotype PPOF-02, 120 g ai/ha) of the same compound?
A: The value was 0 plant.

Q: What about the “The grade of pesticide damage/plant: 2” value (genotype PPOF-02, 120 g ai/ha) of the same compound?
A: The value was 0 plant.

Q: And the “The grade of pesticide damage/plant: 3” value (genotype PPOF-02, 120 g ai/ha)?
A: Its value is 0 plant.

Q: And the “The grade of pesticide damage/plant: 0” value (genotype PPOF-02, 240 g ai/ha)?
A: The value was 16 plant.

Q: What about the “The grade of pesticide damage/plant: 1” value (genotype PPOF-02, 240 g ai/ha) of the same compound?
A: Its value is 0 plant.

Q: And the “The grade of pesticide damage/plant: 2” value (genotype PPOF-02, 240 g ai/ha)?
A: Its value is 0 plant.

Q: And the “The grade of pesticide damage/plant: 3” value (genotype PPOF-02, 240 g ai/ha)?
A: Its value is 0 plant.

Q: And the “tolerance to the herbicide (in words)” value (genotypes PPOA-02 to PPOF-02, at different concentrations)?
A: The value was “high-resistant tolerance”.
